Results as given in patent US20120309934A1, “INTRACELLUAR TARGETING BIPODAL PEPTIDE BINDER” (priority 2009, published 2012).
Blank lines part the entries; values can stand above or below the molecule they belong to. Residues, ends and D or L forms follow the SMILES beside them. No end group written: not given here.

Legend:
Type in all cases: binding
VCAM1 = target: T1, VCAM1 (Homo sapiens, UniProt P19320); assay: Recombinant phage ELISA specificity to VCAM1; conditions: recombinant phage ELISA against several proteins
T1 construct: made in house; host or cells: E. coli AD494 (pET32a)
T1 sequence (P19320 25-739): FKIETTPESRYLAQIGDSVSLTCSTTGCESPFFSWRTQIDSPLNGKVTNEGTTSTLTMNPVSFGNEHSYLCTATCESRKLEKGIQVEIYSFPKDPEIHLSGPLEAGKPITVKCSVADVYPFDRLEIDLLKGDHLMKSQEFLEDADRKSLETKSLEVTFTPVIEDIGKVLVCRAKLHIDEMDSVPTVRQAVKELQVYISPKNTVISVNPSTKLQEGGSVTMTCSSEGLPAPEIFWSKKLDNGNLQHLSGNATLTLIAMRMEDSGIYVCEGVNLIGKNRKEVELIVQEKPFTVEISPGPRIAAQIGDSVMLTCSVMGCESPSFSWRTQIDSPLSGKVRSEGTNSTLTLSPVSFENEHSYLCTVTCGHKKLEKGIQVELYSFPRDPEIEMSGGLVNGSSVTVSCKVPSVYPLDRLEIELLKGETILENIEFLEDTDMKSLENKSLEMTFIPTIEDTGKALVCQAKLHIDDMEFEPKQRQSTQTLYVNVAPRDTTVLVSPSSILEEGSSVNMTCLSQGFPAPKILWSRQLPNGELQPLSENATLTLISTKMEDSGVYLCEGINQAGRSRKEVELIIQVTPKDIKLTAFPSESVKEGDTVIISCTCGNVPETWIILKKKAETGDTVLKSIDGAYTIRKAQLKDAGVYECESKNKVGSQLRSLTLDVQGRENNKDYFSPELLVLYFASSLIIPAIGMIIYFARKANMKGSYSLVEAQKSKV
Method: (§1) Specificity of recombinant phages to each protein was carried out using ELISA. Each protein (5 μg/ml) was seeded into wells (50 μl per well) in a 96-well ELISA plate and next day, all wells were washed with 0.1% PBST (Tween-20) three times, and blocked at room temperature for 2 hrs using 2% skim milk. Then, the solution was completely removed and the plate was washed with 0.1% PBST three times. Recombinant phages containing the peptide of the present invention were thoroughly mixed with 2% BSA. Each mixture (100 μl) was divided into wells coated with 10 proteins and kept to stand at 27° C. for 2 hrs. After washing with 0.1% PBST 5 times, HRP-conjugated anti-M13 antibodies (1:1,000 dilution; GE Healthcare) were added to each well and incubated at 27° C. for 1 hr. After washing with 0.1% PBST 5 times, 100 μl TMB was divided into each well to induce colorimetric reaction, followed by stopping the reaction adding 100 μl of 1 M HCl. The absorbance was measured at 450 nm.

HSA = target: T2, HSA (Homo sapiens, UniProt P02768); assay: Recombinant phage ELISA specificity to HSA; conditions: recombinant phage ELISA against several proteins
T2 construct: purchased Genetex Inc. (Irvine)
T2 sequence (P02768 25-609): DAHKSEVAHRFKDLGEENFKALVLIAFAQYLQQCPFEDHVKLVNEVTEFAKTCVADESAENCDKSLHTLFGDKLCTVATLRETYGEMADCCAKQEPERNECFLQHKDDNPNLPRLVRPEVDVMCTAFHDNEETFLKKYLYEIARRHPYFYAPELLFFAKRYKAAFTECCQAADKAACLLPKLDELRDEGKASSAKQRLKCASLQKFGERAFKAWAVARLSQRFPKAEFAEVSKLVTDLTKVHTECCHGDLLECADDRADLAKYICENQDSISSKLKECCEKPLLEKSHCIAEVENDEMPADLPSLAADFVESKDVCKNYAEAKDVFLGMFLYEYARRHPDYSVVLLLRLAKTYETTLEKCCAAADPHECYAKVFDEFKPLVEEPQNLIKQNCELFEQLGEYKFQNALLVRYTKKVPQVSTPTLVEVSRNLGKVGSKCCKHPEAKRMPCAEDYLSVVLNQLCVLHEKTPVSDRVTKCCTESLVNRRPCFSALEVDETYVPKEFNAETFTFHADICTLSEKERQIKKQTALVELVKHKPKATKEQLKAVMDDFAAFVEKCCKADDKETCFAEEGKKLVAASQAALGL
Method: as §1

[1] = target: T3, nAchR (Nicotinic acetylcholine receptor) (Mus musculus, UniProt P04756); assay: SPR (Biacore) affinity to nAchR peptide fragment
T3 construct: Biotin-[…]; (32 mer), a peptide fragment of nAchR; purchased Anigen Inc. (Korea, Kwangju), custom synthesis
T3 sequence (P04756 193-224 limits assumed): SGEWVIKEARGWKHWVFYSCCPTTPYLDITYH
Method: Affinity was measured using BIAcore X instrument (Biacore AB, Uppsala, Sweden). ED-B and nAchR were immobilized on streptavidin (SA) chip (Biacore) by injecting 2,000 RU biotinylated-EDB. VEGF was immobilized on CM5 chip (Biacore) using EDC/NHS. PBS (pH 7.4) was used as a running buffer.

nAchR = target: T4, nAchR (Mus musculus, UniProt P04756); assay: Recombinant phage ELISA specificity to nAchR; conditions: recombinant phage ELISA against several proteins
T4 construct: Biotin-[…]; (32 mer), a peptide fragment of nAchR; purchased Anigen Inc. (Korea, Kwangju), custom synthesis
T4 sequence (P04756 193-224 limits assumed): as above
Method: as §1

VEGF = target: T5, VEGF (Homo sapiens, UniProt P15692); assay: Recombinant phage ELISA specificity to VEGF; conditions: recombinant phage ELISA against several proteins
T5 construct: Trx (thioredoxin, pET32a) (N, cleaved yes); made in house; host or cells: E. coli AD494 (pET32a)
T5 sequence (P15692 27-147 isoform P15692-9 limits assumed): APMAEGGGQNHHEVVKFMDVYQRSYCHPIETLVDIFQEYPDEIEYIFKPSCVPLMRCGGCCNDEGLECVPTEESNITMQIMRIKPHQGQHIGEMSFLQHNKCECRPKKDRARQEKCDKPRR
Method: as §1

fibronectin ED-B = target: T6, fibronectin ED-B (Homo sapiens, UniProt P02751); assay: Recombinant phage ELISA specificity to fibronectin ED-B; conditions: 450 nm, 10 proteins
T6 construct: After transformation of pET28b vector carrying fibronectin ED-B into BL21 cells; made in house; host or cells: E. coli BL21 (pET28b)
T6 sequence (P02751 1271-1359 limits assumed): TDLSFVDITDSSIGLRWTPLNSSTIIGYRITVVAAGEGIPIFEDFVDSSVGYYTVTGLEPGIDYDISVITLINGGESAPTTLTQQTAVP
Method: as §1

STAT3 = target: T7, STAT3 (Homo sapiens, UniProt P40763); assay: Phage ELISA to STAT3 (clone screening and specificity); conditions: recombinant phage ELISA
T7 construct: endogenous in cells; host or cells: DU145
T7 sequence (P40763 whole entry, species assumed): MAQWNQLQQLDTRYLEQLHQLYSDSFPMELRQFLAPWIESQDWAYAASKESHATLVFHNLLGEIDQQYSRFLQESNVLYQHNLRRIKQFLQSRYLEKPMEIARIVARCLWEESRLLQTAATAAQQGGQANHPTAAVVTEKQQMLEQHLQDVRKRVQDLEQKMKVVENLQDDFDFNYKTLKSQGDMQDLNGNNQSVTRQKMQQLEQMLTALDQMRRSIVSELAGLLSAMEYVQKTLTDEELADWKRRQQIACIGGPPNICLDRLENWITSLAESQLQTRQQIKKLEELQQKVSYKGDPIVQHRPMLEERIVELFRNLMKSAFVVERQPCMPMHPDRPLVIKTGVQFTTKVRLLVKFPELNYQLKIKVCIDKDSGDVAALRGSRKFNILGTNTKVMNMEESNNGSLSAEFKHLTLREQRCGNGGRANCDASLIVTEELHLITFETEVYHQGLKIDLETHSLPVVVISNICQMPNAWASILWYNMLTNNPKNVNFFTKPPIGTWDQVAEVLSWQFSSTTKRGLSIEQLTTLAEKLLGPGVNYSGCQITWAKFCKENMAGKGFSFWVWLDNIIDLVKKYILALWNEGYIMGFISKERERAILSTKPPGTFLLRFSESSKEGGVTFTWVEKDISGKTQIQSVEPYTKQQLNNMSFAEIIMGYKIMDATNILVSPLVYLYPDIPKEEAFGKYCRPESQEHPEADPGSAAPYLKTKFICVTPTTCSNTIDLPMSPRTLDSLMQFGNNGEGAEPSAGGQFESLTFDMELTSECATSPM
Method: XL1-BLUE cells were transformed with phages recovered from the 4th biopanning step having the highest ratio of output phage to input phage, and spread in plate to produce 100-200 of plaques. Using a sterile tip, 60 plaques were inoculated in 2 ml LB-ampicillin (50 μg/ml) media and cultured at 37° C. for 5 hr with vigorous shaking. The transformed cells were infected with Ex helper phages (5×10^9 pfu/ml; OD=0.8-1.0) and cultured at 37° C. for 1 hr with shaking at 200 rpm. After removing the supernatant by centrifuging at 1,000×g for 10 min, the precipitated cells were resuspended in 1 ml LB liquid media supplemented with 50 μg/ml ampicillin and 25 μg/ml kanamycin, and cultured at 30° C. overnight with shaking at 200 rpm. The supernatant was collected by centrifuging at 10,000×g for 20 min at 4° C. and mixed with 2% skim milk, which is used in detection of phage peptides.
STAT3 (10 μg/ml), BSA (10 μg/ml) and streptavidin (10 μg/ml) each was added to 30 wells (50 μl per well) in a 96-well ELISA plate and then kept to stand at 4° C. overnight. Next day, all wells were washed with 0.1% PBST three times, and blocked at room temperature for 2 hrs using 2% skim milk diluted with PBS. Then, the solution was removed and the plate was washed with 0.1% PBST three times. […] The absorbance was measured at 450 nm to select phages which had the absorbance above 20-fold higher than BSA. […]

MyD88 = target: T8, MyD88 (Homo sapiens, UniProt Q99836); assay: Recombinant phage ELISA specificity to MyD88; conditions: recombinant phage ELISA against several proteins
T8 construct: purchased Santa Cruz Biotechnology sc-4540 WB
T8 sequence (Q99836 whole entry): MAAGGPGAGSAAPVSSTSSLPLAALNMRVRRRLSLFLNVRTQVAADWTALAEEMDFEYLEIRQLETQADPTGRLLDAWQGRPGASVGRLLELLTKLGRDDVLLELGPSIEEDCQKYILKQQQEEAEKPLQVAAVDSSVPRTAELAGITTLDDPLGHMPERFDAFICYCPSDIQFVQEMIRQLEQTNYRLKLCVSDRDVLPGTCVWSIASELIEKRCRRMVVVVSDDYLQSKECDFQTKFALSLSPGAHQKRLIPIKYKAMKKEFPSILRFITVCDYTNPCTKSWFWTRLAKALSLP
Method: as §1
The MyD88-specific bipodal-peptide binders were analyzed to have target specificity to MyD88 by the ELISA (FIG. 6f).

Molecule: CC[C@H](C)[C@H](NC(=O)[C@@H]1CCCN1C(=O)[C@H](CS)NC(=O)[C@@H](NC(=O)[C@H](CO)NC(=O)[C@@H]1CCCN1C(=O)CNC(=O)[C@H](CCCCN)NC(=O)[C@H](Cc1c[nH]c2ccccc12)NC(=O)[C@@H](NC(=O)[C@H](Cc1c[nH]c2ccccc12)NC(=O)[C@H](CCCCN)NC(=O)CNC(=O)[C@H](CC(N)=O)NC(=O)[C@H](CCC(=O)O)NC(=O)[C@H](Cc1c[nH]c2ccccc12)NC(=O)[C@@H](NC(=O)[C@H](Cc1c[nH]c2ccccc12)NC(=O)[C@H](CO)NC(=O)CNC(=O)[C@@H](NC(=O)[C@H](CS)NC(=O)[C@H](CC(=O)O)NC(=O)[C@H](CCCNC(=N)N)NC(=O)[C@H](C)NC(=O)[C@@H](N)CCC(N)=O)[C@@H](C)O)[C@@H](C)O)[C@@H](C)O)[C@@H](C)CC)C(=O)O [Peptide 1 (Table 3c)] (H-QARDCTGSWTWENGKWTWKGPSICPI-OH; N-terminus and C-terminus assumed)
- specificity for VCAM1 (VCAM1): has specificity

Molecule: AASPYKGSWTWENGKWTWKGGWRMKM [Peptide 1 (Table 3e)]
- specificity for HSA (HSA): has specificity

Molecule: EASFWLGSWTWENGKWTWKGKGTLNR [Peptide 1 (Table 3d)]
- Kd [1]: 73 nM
- specificity for nAchR (nAchR): has specificity

Molecule: HANFFQGSWTWENGKWTWKGWKYNQS [Peptide 1 (Table 3b)]
- specificity for VEGF (VEGF): has specificity

Molecule: HCSSAVGSWTWENGKWTWKGIIRLEQ [2 (Table 3a)]
- absorbance for ED-B higher than that of other proteins (fibronectin ED-B): above 30 fold

- specificity to STAT3 compared to other proteins (STAT3): specificity to STAT3
Molecule: HGFQWP GSWTWENGKWTWKG AYQFLK (GSWTWENGKWTWKGAYQFLK) [Peptide 2 (STAT3)]

- specificity for MyD88 (MyD88): has specificity
Molecule: HSHAFYGSWTWENGKWTWKGNPGWWT [Peptide 1 (Table 3f)]

Molecule: QAYYIPGSWTWENGKWTWKGLWGPEF [Peptide 1 (STAT3), QAYYIP GSWTWENGKWTWKG LWGPEF]
- specificity to STAT3 compared to other proteins (STAT3): specificity to STAT3
